# According to patent US9926305B2, “Salts” (Bayer Pharma Aktiengesellschaft, priority 2013, dated 2018):
# Tests used:
# [1] = storage stability after processing via suspensions; type: physicochemical; conditions: crystalline salt, even after processing via suspensions
# [2] = for some applications; suitability for use in formulations
Structure (SMILES),storage stability [1],solubility [2]
"Cn1c(=O)oc2cc(-n3cc(C(=O)O)c(=O)n([C@@H]4CCc5c4cccc5C(F)(F)F)c3=O)ccc21.NCCCC[C@H](N)C(=O)O [L-lysine salt, L-lysine salt of 1-(3-methyl-2-oxo-2,3-dihydro-1,3-benzoxazol-6-yl)-2,4-dioxo-3-[(1R)-4-(trifluoromethyl)-2,3-dihydro-1H-inden-1-yl]-1,2,3,4-tetrahydropyrimidine-5-carboxylic acid]",storage-stable,
"Cn1c(=O)oc2cc(-n3cc(C(=O)O)c(=O)n([C@@H]4CCc5c4cccc5C(F)(F)F)c3=O)ccc21 [free acid, 1-(3-Methyl-2-oxo-2,3-dihydro-1,3-benzoxazol-6-yl)-2,4-dioxo-3-[(1R)-4-(trifluoromethyl)-2,3-dihydro-1H-inden-1-yl]-1,2,3,4-tetrahydropyrimidine-5-carboxylic acid]",,insufficient solubility
"Cn1c(=O)oc2cc(-n3cc(C(=O)[O-])c(=O)n([C@@H]4CCc5c4cccc5C(F)(F)F)c3=O)ccc21.[K+] [potassium salt, potassium salt of 1-(3-methyl-2-oxo-2,3-dihydro-1,3-benzoxazol-6-yl)-2,4-dioxo-3-[(1R)-4-(trifluoromethyl)-2,3-dihydro-1H-inden-1-yl]-1,2,3,4-tetrahydropyrimidine-5-carboxylic acid]",storage-stable,
"Cn1c(=O)oc2cc(-n3cc(C(=O)[O-])c(=O)n([C@@H]4CCc5c4cccc5C(F)(F)F)c3=O)ccc21.[Na+] [sodium salt, sodium salt of 1-(3-methyl-2-oxo-2,3-dihydro-1,3-benzoxazol-6-yl)-2,4-dioxo-3-[(1R)-4-(trifluoromethyl)-2,3-dihydro-1H-inden-1-yl]-1,2,3,4-tetrahydropyrimidine-5-carboxylic acid]",storage-stable,
